Drawing on US6552188B2, “Unsymmetrical cyclic diamine compound” (Kowa Co., Ltd., priority 2001, dated 2003), this text covers inhibition for twelve compounds.

Where two headings read alike, the source gives them in different places.

This assay has as its system adhesion of U937 cells to human umbilical venous endothelial cells (HUVEC). As to the kind of experiment: Inhibitory effect on cell adhesion (fluorescence-labeled U937 adhered to IL-1β- or TNFα-stimulated HUVEC). In kind it is cell-based. The following applies: compound at 1 μM. The protocol:
(Inhibitory Effect on Cell Adhesion)
This test was conducted by reference to the method of Ross et al. (J. Biol. Chem., 267, 8537-8543 (1992)). More specifically, after human umbilical venous endothelial cells (HUVEC) were cultured on a 48-well plate to confluent growth, IL-1β or TNFα was added thereto. Upon elapsed time of 5 hours after the addition, U937, which is a human monocytic/histocytic cell fluorescence-labeled with PKH2 (product of Dainippon Pharmaceutical Co., Ltd.), was added in a proportion of 1×10^6 cells per well. After the plate was left at rest at room temperature for 1 hour, unadhered U937 was washed out and lysed in 1% Triton X-100 to measure a remaining fluorescence intensity (excitation wavelength: 480 nm; measuring wavelength: 530 nm). HUVEC and U937 were cultured in EGM-2 (product of Sanko Junyaku K.K.) and 10% FCS-containing RPMI1640, respectively. Each test agent was added to HUVEC upon the addition of IL-1β or TNFα and to U937 24 hours prior to the cell adhesion test. The inhibitory activity was calculated out according to the equation [100−(C−B)/(A−B)×100(%)], wherein A is the number of U937 cells adhered to HUVEC stimulated by IL-1β or TNFα when no test agent was added, B is the number of U937 cells adhered to HUVEC not stimulated by IL-1β or TNFα when no test agent was added, and C is the number of U937 cells adhered to HUVEC stimulated by IL-1β or TNFα when the test agent was added. As control compounds, Test Compound 1 described in Japanese Patent Application Laid-Open No. 9-143075 and dilazep described in Japanese Patent Application Laid-Open No. 11-92382 were simultaneously evaluated.

Where [1] appears, read: U937 adhesion to HUVEC stimulated by IL-1β, read-out: Percent inhibition (%) Stimulation by IL-1β.
The mark [2] stands for this setting: U937 adhesion to HUVEC stimulated by TNFα, read-out: Percent inhibition (%) Stimulation by TNFα.

The inhibition is the share of the control response that was lost under treatment. Regarding `COc1cc(C(=O)OCCCN2CCCN(CCCOC(=O)c3cc(OC)c(OC)c(OC)c3)CC2)cc(OC)c1OC` [Dilazep, dilazep, reference compound], the inhibition at 1 µM came out at 0% under setting [1] and 12% under setting [2].
In the same order, the values of `COc1cc(-c2cccc(CN3CCN(Cc4ccnc(-c5cc(OC)c(OC)c(OC)c5)c4)CC3)c2)cc(OC)c1OC` [Example 18, N-[3-(3,4,5-trimethoxyphenyl)benzyl]-N′-[[2-(3,4,5-trimethoxyphenyl)pyridin-4-yl]methyl]piperazine difumarate] are 37% and 54%.
For `COc1cc(-c2cccc(CN3CCCN(Cc4ccnc(-c5cc(OC)c(OC)c(OC)c5)c4)CC3)c2)cc(OC)c1OC` [Example 19, N-[3-(3,4,5-trimethoxyphenyl)benzyl]-N′-[[2-(3,4,5-trimethoxyphenyl)pyridin-4-yl]methyl]homopiperazine difumarate], in that order: 33% and 58%.
Take `COc1cc(-c2cc(CN3CCN(Cc4ccnc(-c5ccccc5)c4)CC3)ccn2)cc(OC)c1OC` [Example 21, N-[(2-phenylpyridin-4-yl)methyl]-N′-[[2-(3,4,5-trimethoxyphenyl)pyridin-4-yl]methyl]piperazine difumarate]: the inhibition at 1 µM under setting [1] is 44% and the inhibition at 1 µM under setting [2] was 60%.
For the compound `COc1ccc(-c2cc(CN3CCN(Cc4ccnc(-c5cc(OC)c(OC)c(OC)c5)c4)CC3)ccn2)cc1` [Example 25, N-[[2-(4-methoxyphenyl)pyridin-4-yl]methyl]-N′-[[2-(3,4,5-trimethoxyphenyl)pyridin-4-yl]methyl]-piperazine difumarate], the inhibition at 1 µM by setting is: under setting [1], 78%; under setting [2], 70%.
In the case of `COc1ccc(-c2cc(CN3CCN(Cc4ccnc(-c5cc(OC)c(OC)c(OC)c5)c4)CC3)ccn2)cc1OC` [Example 26, N-[[2-(3,4-dimethoxyphenyl)pyridin-4-yl]methyl]-N′-[[2-(3,4,5-trimethoxyphenyl)pyridin-4-yl]methyl]piperazine difumarate], the inhibition at 1 µM under setting [1] was 75% and the inhibition at 1 µM under setting [2] was 69%.
In the same order, the values of `COc1cc(-c2cc(CN3CCN(CCc4ccc5c(OC)c(OC)c(OC)cc5c4)CC3)ccn2)cc(OC)c1OC` [Example 37, N-[2-(5,6,7-trimethoxynaphthalen-2-yl)ethyl]-N′-[[2-(3,4,5-trimethoxyphenyl)pyridin-4-yl]methyl]-piperazine dimaleate] are 68% and 56%.
Consider `COc1cc(-c2cc(CN3CCN(Cc4ccc5c(OC)c(OC)c(OC)cc5c4)CC3)ccn2)cc(OC)c1OC` [Example 38, N-[(5,6,7-trimethoxynaphthalen-2-yl)methyl]-N′-[[2-(3,4,5-trimethoxyphenyl)pyridin-4-yl]methyl]-piperazine dimaleate], for which the inhibition at 1 µM is, setting by setting: under setting [1], 59%; under setting [2], 76%.
In the same order, the values of `COc1cc(/C=C/CCCN2CCN(Cc3ccnc(-c4cc(OC)c(OC)c(OC)c4)c3)CC2)cc(OC)c1OC` [Example 40, N-[(E)-5-(3,4,5-trimethoxyphenyl)-4-pentenyl-]-N′-[[2-(3,4,5-trimethoxyphenyl)pyridin-4-yl]methyl]piperazine difumarate] are 44% and 55%.
In the same order, the values of `COc1cc(/C=C/CCCN2CCCN(Cc3ccnc(-c4cc(OC)c(OC)c(OC)c4)c3)CC2)cc(OC)c1OC` [Example 41, N-[(E)-5-(3,4,5-trimethoxyphenyl)-4-pentenyl]-N′-[[2-(3,4,5-trimethoxyphenyl)pyridin-4-yl]methyl]homopiperazine difumarate] are 56% and 67%.
As to `COc1cc(-c2cc(CN3CCN(CCC/C=C/c4ccc(F)cc4)CC3)ccn2)cc(OC)c1OC` [Example 42, N-[(E)-5-(4-fluorophenyl)-4-pentenyl]-N′-[[2-(3,4,5-trimethoxyphenyl)pyridin-4-yl]methyl]piperazine difumarate], the inhibition at 1 µM is, setting by setting: under setting [1], 54%; under setting [2], 56%.
On to `COc1cc(-c2cccc(C(=O)N3CCN(Cc4ccnc(-c5cc(OC)c(OC)c(OC)c5)c4)CC3)c2)cc(OC)c1OC` [Example 56, N-[3-(3,4,5-trimethoxyphenyl)benzoyl]-N′-[[2-(3,4,5-trimethoxyphenyl)pyridin-4-yl]methyl]piperazine], for which the inhibition at 1 µM is 76% under setting [1] and 52% under setting [2].
